Test results as given in US8809627B2, “Plant isoflavone and isoflavanone O-methyltransferase genes” (The Samuel Roberts Noble Foundation, Inc., priority 2006, dated 2014).

Key:
MtIOMT2 = assay: OMT assays with purified recombinant MtIOMT2 (relative activity; HPLC/MS of products); format: biochemical, Medicago truncatula; conditions: for Relative activity, MtIOMT2: 50 μM S-adenosyl methionine, 100 μM acceptor substrate, most converted substrate (daidzein) = 100%
Source text: (§1) Cloning of MtIOMT5 (corresponding to TC 100926, TIGR MtGI v.8) was as described previously (Liu et al., 2005). To obtain a full-length cDNA for MtIOMT2, specific primers designed based upon the M. truncatula genomic sequence were used to amplify the MtIOMT2 coding sequence from M. truncatula root cDNA. The amplified product was cloned into the pGEM®-T easy vector (Promega, Madison Wis.) and sequenced to confirm its identity. MtIOMTs were cloned into the pET28a vector (EMD Biosciences, Inc., San Diego, Calif.) using PCR-based amplification with primers designed to introduce EcoRI and XhoI restriction sites; BamHI and XhoI sites were used for cloning MtIOMT6 due to the presence of an internal EcoRI site in this particular cDNA. Because the EST for MtIOMT8 was missing a start codon, the primer designed to clone MtIOMT8 into pET28a contained an additional 2-nucleotide insertion to generate an ATG start site. All MtIOMTs were expressed as translational fusions to an N-terminal His-tag. Expression of MtIOMTs in E. coli BL21(DE3) and purification by Ni^2+-NTA chromatography were as described (Zubieta et al., 2001). Proteins were dialyzed against 20 mM Tris pH 8.0, 100 mM NaCl, 10% (v/v) glycerol, and 14 mM β-mercaptoethanol. Protein concentration was determined by Bradford assay using BSA as a standard (Bradford, 1976).
(§2) Reactions (200 μl) were performed in 0.1 M potassium phosphate, pH 7.4, 10% (w/v) sucrose, 14 mM β-mercaptoethanol with 10 μM protein, 0.5 mM S-adenosyl-L-methionine, and 80 μM phenolic substrates. All substrates were purchased from Indofine (Hillsborough, N.J.) except 6,7-dihydroxy-4′-methoxyisoflavone, dihydrodaidzein, and vestitol, which were purchased from Apin (Oxfordshire, UK). […] OMT assays were incubated at 30° C. for 2 h and extracted with ethyl acetate. Ethyl acetate extracts were dried under N2 and the resultant material was resuspended in 50-100 μl of methanol. Samples were analyzed on an Agilent 1100 HPLC, equipped with a quaternary pump (model #G1311A), a degasser (model #G1322A), an autosampler (model #G1313A), and a diode array detector (model #G1315A). Samples of 20 μl were applied to an ODS2 reverse-phase column (5 μm particle size, 4.6×250 mm) and eluted in 1% (v/v) phosphoric acid with an increasing gradient of acetonitrile (0-5 min, 25%; 5-35 min, 25-50%; 35-39 min, 50-100%) at a flow rate of 1 ml/min. To resolve the 4′-O-methylated and 7-O-methylated products of genistein, samples were applied to a Phenomenex SYNERGI Polar-RP 80 Å column (4 μm particle size, 4.6×250 mm) and eluted in water with an increasing gradient of acetonitrile (0-5 min, 20%; 5-17 min, 20-38%; 17-33 min, 38%; 33-45 min, 38-56%; 45-46 min, 56-100%) at a flow rate of 1 ml/min. Chiral chromatography was performed as described (Liu et al., 2005).
(§3) For determination of specific activities, reactions (100 μl) were performed in 0.1 M potassium phosphate, pH 7.4, 10% (w/v) sucrose, 14 mM β-mercaptoethanol with 0.2-μg protein, 50 μM S-adenosyl-L-methionine (0.025 μCi ^14C-SAM per reaction), and 100 μM substrate. Reactions were incubated at 30° C. for 15-25 min and stopped by addition of 4 μl of 1N HCl. Products were extracted into 500 μl of ethyl acetate and 400 μl was used for liquid scintillation counting.
(§4) An HP 1100 series II LC system (Hewlett-Packard, Palo Alto, Calif.) with a photodiode array detector was coupled to a Bruker Esquire ion-trap mass spectrometer (ITMS) equipped with an electrospray ionization source. A reverse phase, C18, 5 μm, 4.6×250 mm column (J. T. Baker, Phillipsburg, N.J.) was used for separations. The mobile phase consisted of 0.1% (v/v) acetic acid using linear gradients of 5-90% acetonitrile (v/v) in 70 min. The flow rate was 0.8 ml/min, and the temperature of the column was kept at 28° C. Both positive- and negative-ion mass spectra were acquired. […]

MtIOMT5 = biological target: T1, MtIOMT5 (Medicago truncatula, UniProt Q29U70); assay: OMT assays with purified recombinant MtIOMT5 (relative activity; HPLC/MS of products); format: biochemical; conditions: for Relative activity, MtIOMT5: 50 μM S-adenosyl methionine, 100 μM acceptor substrate, most converted substrate = 100%; for Position of methylation / reaction products, MtIOMT5: HPLC against standards, tandem MS
T1 construct: His-tag (N); made in house; host or cells: E. coli BL21(DE3)
T1 sequence (Q29U70 1-364): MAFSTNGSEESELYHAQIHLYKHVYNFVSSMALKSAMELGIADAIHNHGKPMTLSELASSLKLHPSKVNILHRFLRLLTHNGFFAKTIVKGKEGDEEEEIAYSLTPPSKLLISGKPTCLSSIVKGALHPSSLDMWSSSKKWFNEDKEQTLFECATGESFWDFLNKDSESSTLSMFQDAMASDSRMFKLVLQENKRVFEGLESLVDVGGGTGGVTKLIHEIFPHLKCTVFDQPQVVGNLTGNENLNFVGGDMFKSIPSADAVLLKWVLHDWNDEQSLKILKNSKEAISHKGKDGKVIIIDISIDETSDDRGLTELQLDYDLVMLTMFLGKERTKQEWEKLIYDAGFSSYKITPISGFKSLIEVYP
Source text: as §1, §2, §3, §4

MtIOMT7 = assay: OMT assays with purified recombinant MtIOMT7 (relative activity; HPLC/MS of products); format: biochemical, Medicago truncatula; conditions: for Relative activity, MtIOMT7: 50 μM S-adenosyl methionine, 100 μM acceptor substrate, most converted substrate = 100%
Source text: as §1, §2, §3
An HP 1100 series II LC system (Hewlett-Packard, Palo Alto, Calif.) with a photodiode array detector was coupled to a Bruker Esquire ion-trap mass spectrometer (ITMS) equipped with an electrospray ionization source. A reverse phase, C18, 5 μm, 4.6×250 mm column (J. T. Baker, Phillipsburg, N.J.) was used for separations. The mobile phase consisted of 0.1% (v/v) acetic acid using linear gradients of 5-90% acetonitrile (v/v) in 70 min. The flow rate was 0.8 ml/min, and the temperature of the column was kept at 28° C. Both positive- and negative-ion mass spectra were acquired.

MsI7OMT = biological target: T2, MsI7OMT (Medicago sativa, UniProt O24529); assay: OMT assays with purified recombinant MsI7OMT (relative activity); format: biochemical; conditions: 50 μM S-adenosyl methionine, 100 μM acceptor substrate; most converted substrate = 100%
T2 sequence (O24529 1-352): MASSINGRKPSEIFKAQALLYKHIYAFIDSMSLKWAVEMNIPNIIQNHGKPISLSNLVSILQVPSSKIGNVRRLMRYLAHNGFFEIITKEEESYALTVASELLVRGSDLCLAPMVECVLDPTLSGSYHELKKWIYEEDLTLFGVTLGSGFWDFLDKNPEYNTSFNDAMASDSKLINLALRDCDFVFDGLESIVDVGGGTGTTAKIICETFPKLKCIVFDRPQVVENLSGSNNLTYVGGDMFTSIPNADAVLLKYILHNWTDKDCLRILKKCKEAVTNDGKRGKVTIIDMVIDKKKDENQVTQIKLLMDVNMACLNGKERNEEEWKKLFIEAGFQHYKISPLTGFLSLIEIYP
Source text: as §1, §2, §3

Row | SMILES | Relative activity, MtIOMT2 (MtIOMT2) | Relative activity, MtIOMT5 (MtIOMT5) | Relative activity, MtIOMT7 (MtIOMT7) | Relative activity, MsI7OMT (MsI7OMT) | Efficiency of methylation by MtIOMT2 (in words) (MtIOMT2) | Position of methylation / reaction products, MtIOMT5 (MtIOMT5) | Amount of substrate methylated after 2 h (MtIOMT7; MtIOMT7, 2 h)
1 | O=c1c(-c2ccc(O)cc2)coc2cc(O)c(O)cc12 [6,7,4′-trihydroxyisoflavone] | 35.3% | 0% | 0% | 51.8% |  |  | 
2 | O=C1C[C@@H](c2ccc(O)cc2)Oc2cc(O)cc(O)c21 [Naringenin] | ≦1% | ≦1% | 100% | 0% | low efficiency | methylated on the 4′-positions | Almost all
3 | O=c1oc2cc(O)ccc2c2oc3cc(O)ccc3c12 [Coumestrol] | ≦1% | 0% | 1.5% | 0% | low efficiency |  | 
4 | COc1ccc(-c2coc3cc(O)c(O)cc3c2=O)cc1 [6,7-dihydroxy,4′-methoxyisoflavone] | 0% | 0% | 0% | ≦1% |  |  | 
5 | O=c1c(O)c(-c2cc(O)c(O)c(O)c2)oc2cc(O)cc(O)c12 [Myricetin] | 0% | 0% | 0% | 0% |  |  | 
6 | COc1cc2c(=O)c(-c3ccc(O)cc3)coc2cc1O [Glycitein] | 38.9% | 0% | ≦1% | 100% |  |  | 
7 | O=c1cc(-c2ccc(O)cc2)oc2cc(O)ccc12 [7,4′-dihydroxyflavone] | ≦1% | 0% | 0% | 0% |  |  | 
8 | COc1ccc(C2COc3cc(O)ccc3C2)c(O)c1 (stereo not shown) [Vestitol] | ≦1% | ≦1% | 3.4% | 0% | low efficiency |  | 
9 | O=C1c2ccc(O)cc2OCC1c1ccc(O)cc1 (stereo not shown) [Dihydrodaidzein] | 70.1% | 7.9% | 84.1% | 12.8% |  | 4′-methoxy, 7-methoxy, and 4′,7-dimethoxy products | 
10 | O=c1c(-c2ccc(O)c(O)c2)coc2cc(O)ccc12 [7,3′,4′-trihydroxyisoflavone] | 43.1% | 0% | ≦1% | 47.1% |  |  | 
11 | O=c1cc(-c2ccc(O)cc2)oc2cc(O)cc(O)c12 [Apigenin] | 0% | 0% | 0% | 0% |  |  | 
12 | O=c1c(-c2ccc(O)cc2)coc2cc(O)cc(O)c12 [Genistein] | 61% | 0% | 0% | 15% |  |  | 
13 | O=c1c(-c2ccc(O)cc2)coc2cc(O)ccc12 [Daidzein] | 100% | 0% | 0% | 21.6% |  |  | 
